Two compounds from ChEMBL document CHEMBL4334495, “Design and Biological Evaluation of m-Xylene Thioether-Stapled Short Helical Peptides Targeting the HIV-1 gp41 Hexameric Coiled-Coil Fusion Complex” (J Med Chem, 2019) can be followed below.

For series [1], the system named is Human immunodeficiency virus 1. Kind of series: Ratio of EC50 for antiviral activity against HIV1 NL4-3 infected in human MT2 cells or CEMx174 5.25 M7 cells in absence of HP23 to EC50 for antiviral activity against HIV1 NL4-3 infected in human MT2 cells or CEMx174 5.25 M7 cells at 20:1 compound to HP23 ratio. It counts as functional.
Series [2] is described as follows: Metabolic stability in rat liver homogenates assessed as parent compound remaining at 3 to 100 uM after 2 hrs by RP-HPLC analysis. As to conditions: read-out: Stability. It counts as ADME, tissue-based.
Series [3] has as its system Human immunodeficiency virus 1. Kind of series: Antiviral activity against HIV1 NL4-3 infected in human MT2 cells or CEMx174 5.25 M7 cells assessed as reduction in p24 Gag protein production at 20:1 compound to HP23 ratio measured at 4 days post-infection by ELISA. It is filed as functional, organism-based. The following applies: Human immunodeficiency virus 1, NL4-3, 96 h. In general terms: ELISA stands for enzyme-linked immunosorbent assay.

For series [4], the system named is Human immunodeficiency virus 1. Kind of series: Antiviral activity against R5 tropic HIV-1 subtype-B Bal infected in human MT2 cells or CEMx174 5.25 M7 cells assessed as reduction in p24 Gag protein production at 6:1 ratio of compound to HP23 measured at 4 days post-infection by ELISA. It counts as functional, cell-based, HIV-1 group M. The following applies: Human immunodeficiency virus 1, Bal, 96 h.

For series [5], the target named is Envelope glycoprotein gp160 (Human immunodeficiency virus 1) (UniProt Q6QLK5). Kind of series: Ratio of EC50 for inhibition of HIV1 gp41-induced cell-cell fusion between viral envelope expressing human HL2/3 cells to CD4/CCR5 receptor expressing TZM-bl cells in absence of HP23 to EC50 for inhibition of HIV1 gp41-induced cell-cell fusion between viral envelope expressing human HL2/3 cells to CD4/CCR5 receptor expressing TZM-bl cells at 1:1 compound to HP23 ratio.
Envelope glycoprotein gp160 (Human immunodeficiency virus 1), sequence (Q6QLK5 1-814): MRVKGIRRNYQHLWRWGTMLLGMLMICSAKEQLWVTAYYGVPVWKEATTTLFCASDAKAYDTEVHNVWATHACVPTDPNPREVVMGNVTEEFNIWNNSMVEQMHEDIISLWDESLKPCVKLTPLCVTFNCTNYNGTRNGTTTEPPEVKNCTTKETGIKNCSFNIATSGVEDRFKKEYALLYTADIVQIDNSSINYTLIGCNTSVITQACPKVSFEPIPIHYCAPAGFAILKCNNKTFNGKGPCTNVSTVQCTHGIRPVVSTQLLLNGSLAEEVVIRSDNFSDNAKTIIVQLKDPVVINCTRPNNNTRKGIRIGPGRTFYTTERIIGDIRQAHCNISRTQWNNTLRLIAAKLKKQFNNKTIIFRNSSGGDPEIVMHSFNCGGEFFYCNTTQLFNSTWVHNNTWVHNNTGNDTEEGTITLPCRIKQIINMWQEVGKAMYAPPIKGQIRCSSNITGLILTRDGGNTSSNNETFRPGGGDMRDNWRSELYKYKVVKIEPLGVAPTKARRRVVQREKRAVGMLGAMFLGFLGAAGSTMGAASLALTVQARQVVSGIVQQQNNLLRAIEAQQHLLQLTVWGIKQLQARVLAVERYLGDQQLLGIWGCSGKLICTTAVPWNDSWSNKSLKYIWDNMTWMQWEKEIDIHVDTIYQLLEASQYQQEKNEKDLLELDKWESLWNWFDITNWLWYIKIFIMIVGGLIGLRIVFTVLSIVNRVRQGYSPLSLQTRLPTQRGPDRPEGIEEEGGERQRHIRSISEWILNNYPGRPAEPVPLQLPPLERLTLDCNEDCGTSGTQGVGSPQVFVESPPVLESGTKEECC

For series [6], the system named is Human immunodeficiency virus 1. Put plainly: Ratio of EC50 for antiviral activity against X4 tropic HIV-1 subtype-B 3B infected in human MT2 cells or CEMx174 5.25 M7 cells in absence of HP23 to EC50 for antiviral activity against X4 tropic HIV-1 subtype-B 3B infected in human MT2 cells or CEMx174 5.25 M7 cells at 12:1 compound to HP23 ratio. It is filed as functional, HIV-1 group M.

Series [7] concerns Human immunodeficiency virus 1. Kind of series: Synergistic antiviral activity against R5 tropic HIV-1 subtype-B Bal infected in human MT2 cells or CEMx174 5.25 M7 cells assessed as reduction in p24 Gag protein production by measuring combination index at 3:1 ratio of hCS6ERE to compound measured at 4 days post-infection by ELISA. It counts as functional, HIV-1 group M.
For series [8], the system named is Human immunodeficiency virus 1. Kind of series: Ratio of EC50 for antiviral activity against R5 tropic HIV-1 subtype-B Bal infected in human MT2 cells or CEMx174 5.25 M7 cells in absence of HP23 to EC50 for antiviral activity against R5 tropic HIV-1 subtype-B Bal infected in human MT2 cells or CEMx174 5.25 M7 cells at 12:1 compound to HP23 ratio. It is filed as functional, HIV-1 group M.

The subject of series [9] is Human immunodeficiency virus 1. Kind of series: Ratio of EC50 for antiviral activity against T20 resistant HIV1 NL4-3 harboring with V38E/N42S mutant infected in human MT2 cells or CEMx174 5.25 M7 cells in absence of HP23 to EC50 for antiviral activity against T20 resistant HIV1 NL4-3 harboring with V38E/N42S mutant infected in human MT2 cells or CEMx174 5.25 M7 cells at 14000:1 compound to HP23 ratio. It counts as functional.

For series [10], the system named is Human immunodeficiency virus 1. Kind of series: Antiviral activity against HIV1 NL4-3 infected in human MT2 cells or CEMx174 5.25 M7 cells assessed as reduction in p24 Gag protein production at 5:1 compound to HP23 ratio measured at 4 days post-infection by ELISA. It counts as functional, organism-based. The following applies: Human immunodeficiency virus 1, NL4-3, 96 h.

Series [11] has as its system Human immunodeficiency virus 1. Kind of series: Synergistic antiviral activity against R5 tropic HIV-1 subtype-B Bal infected in human MT2 cells or CEMx174 5.25 M7 cells assessed as reduction in p24 Gag protein production by measuring combination index at 6:1 ratio of hCS6ERE to compound measured at 4 days post-infection by ELISA. It counts as functional, HIV-1 group M.

For series [12], the system named is Human immunodeficiency virus 1. Kind of series: Antiviral activity against T2635 resistant HIV1 LAI harboring Q66R mutant infected in human MT2 cells or CEMx174 5.25 M7 cells assessed as reduction in p24 Gag protein production at 25:1 ratio of compound to HP23 measured at 4 days post infection by ELISA. It counts as functional, organism-based, M:B_Lai.
For series [13], the system named is Human immunodeficiency virus 1. Put plainly: Antiviral activity against T20 resistant HIV1 NL4-3 harboring with V38E/N42T mutant infected in human MT2 cells or CEMx174 5.25 M7 cells assessed as reduction in p24 Gag protein production at 150:1 hCS6ERE to compound ratio measured at 4 days post-infection by ELISA. It is filed as functional, organism-based.
Series [14] concerns Human immunodeficiency virus 1. Kind of series: Ratio of EC50 for antiviral activity against T20 resistant HIV1 NL4-3 harboring with V38E/N42S mutant infected in human MT2 cells or CEMx174 5.25 M7 cells in absence of hCS6ERE to EC50 for antiviral activity against T20 resistant HIV1 NL4-3 harboring with V38E/N42S mutant infected in human MT2 cells or CEMx174 5.25 M7 cells at 3500:1 hCS6ERE to compound ratio. It is filed as functional.

Series [15] relates to Human immunodeficiency virus 1. Kind of series: Ratio of EC50 for antiviral activity against T2635 resistant HIV1 LAI harboring Q66R mutant infected in human MT2 cells or CEMx174 5.25 M7 cells in absence of hCS6ERE to antiviral activity against T2635 resistant HIV1 LAI harboring Q66R mutant infected in human MT2 cells or CEMx174 5.25 M7 cells at 25:1 ratio of hCS6ERE to compound. It is filed as functional, M:B_Lai.

Series [16] concerns Human immunodeficiency virus 1. Put plainly: Antiviral activity against R5 tropic HIV-1 subtype-B Bal infected in human MT2 cells or CEMx174 5.25 M7 cells assessed as reduction in p24 Gag protein production at 12:1 ratio of hCS6ERE to compound measured at 4 days post-infection by ELISA. It counts as functional, cell-based, HIV-1 group M. As to conditions: Human immunodeficiency virus 1, Bal, 96 h.

For series [17], the system named is Human immunodeficiency virus 1. Kind of series: Ratio of EC50 for antiviral activity against T20 resistant HIV1 NL4-3 harboring with V38E/N42T mutant infected in human MT2 cells or CEMx174 5.25 M7 cells in absence of hCS6ERE to EC50 for Antiviral activity against T20 resistant HIV1 NL4-3 harboring with V38E/N42T mutant infected in human MT2 cells or CEMx174 5.25 M7 cells at 150:1 hCS6ERE to compound ratio. It is filed as functional.

For series [18], the system named is Human immunodeficiency virus 1. Put plainly: Antiviral activity against HIV1 NL4-3 infected in human MT2 cells or CEMx174 5.25 M7 cells assessed as reduction in p24 Gag protein production at 10:1 hCS6ERE to compound ratio measured at 4 days post-infection by ELISA. It is filed as functional, organism-based. The following applies: Human immunodeficiency virus 1, NL4-3, 96 h.

Series [19] has as its system Human immunodeficiency virus 1. Put plainly: Antiviral activity against X4 tropic HIV-1 subtype-B 3B infected in human MT2 cells or CEMx174 5.25 M7 cells assessed as reduction in p24 Gag protein production at 24:1 ratio of hCS6ERE to compound measured at 4 days post-infection by ELISA. It counts as functional, cell-based, HIV-1 group M. The following applies: Human immunodeficiency virus 1, 3B, 96 h.

Starred links: 1 amine or outer side, 2 acyl side, 3 side chain; linkers in the order of their positions; H or OH if unused. Positions of bridges follow the written chain, without caps; N, C: chain ends. Non-standard residues stand in square brackets, D forms with d. Residues, ends and D or L forms follow the SMILES beside them. ξ: configuration not given here. mXylylene = c1cc(C[*:1])cc(C[*:2])c1; ξhCys = NC(CCS)C(=O)O

Broadly, the EC50 is the concentration needed to bring the measured effect to its halfway point. On to `CC[C@H](C)[C@H](NC(C)=O)C(=O)N[C@@H](CCC(=O)O)C(=O)N[C@@H](CCC(=O)O)C(=O)N[C@@H](CC(C)C)C(=O)N[C@H](C(=O)NC1CCSCc2cccc(c2)CSCCC(C(=O)N[C@@H](CCC(N)=O)C(=O)N[C@@H](CCC(N)=O)C(=O)N[C@@H](CCCNC(=N)N)C(=O)N[C@@H](CCCCN)C(=O)N[C@@H](CC(N)=O)C(=O)N[C@@H](CCC(=O)O)C(=O)N[C@@H](CCC(=O)O)C(=O)N[C@@H](C)C(=O)N[C@@H](CC(C)C)C(=O)N[C@@H](CCCNC(=N)N)C(=O)N[C@@H](CCC(=O)O)C(=O)N[C@@H](CC(C)C)C(N)=O)NC(=O)[C@H](CCC(N)=O)NC(=O)[C@H](C)NC(=O)[C@H](C)NC1=O)[C@@H](C)CC` (some centres undefined) (Ac-IEELI[ξhCys]AAQ[ξhCys]QQRKNEEALREL-NH2; linker 6-10 via mXylylene), for which the “Ratio EC50” value was 1.6 in series [1]; 2 in [5]; 2.4 in series [6]; 2.6 in series [8]; 2.2 in [9]. Besides, in [2], the remaining at 2 h, up to 100 µM was 27.4%. The EC50 in series [3] came to 14 nM; in series [4], 6 nM; in [10] it was 4.4 nM; in series [12] it was 39.5 nM. The CI in series [7] and in [11] was 0.8 each time.
Turning to H-EMTWEEWEKKIEEYTKKIEEILK-OH, the EC50 in [13] amounted to 2.2 nM; in series [16] it was 0.5 nM; in series [18] it was 0.9 nM; in series [19] it was 0.7 nM. Besides, the “Ratio EC50” value stood at 2.3 in series [14], 3.2 in series [15] and 1.9 in series [17].
